Laboratory results: US20170290774A1, “NEUROKININ-1 RECEPTOR ANTAGONIST COMPOSITION FOR TREATMENT OF DISEASES AND CONDITIONS OF THE RESPIRATORY TRACT” (PLUS VITECH, S.L., priority 2014, published 2017)

Assay: Tissue concentration of aprepitant by HPLC after oral or inhaled administration to rabbits
Type: in vivo, New Zealand albino rabbits
Conditions: rabbit
Procedure: Herein, New Zealand albino rabbits (New Zealand White Rabbits) with an initial average weight of approximately 3 kg were used. The rabbits were fed ad libitum and were monitored daily to check that signs of toxicity had not appeared. […] This mixture was administered as an aerosol to the airways of a group of 3 of said rabbits (Group 5) in a dose of 0.05 mg/kg body weight per day, to another group of three rabbits (Group 6) in a dose of 0.1 mg/kg body weight per day, to another group of three rabbits (group 7) in a dose of 0.2 mg/kg body weight per day and to another group of three rabbits (Group 8) in a dose of 0.4 mg/kg body weight per day. […] After seven days of treatment all animals were euthanized and necropsied. […] Samples were taken at the peripheral level of the lung parenchyma, just below the pleural surface. Tissue samples were also taken from the nasal cavity, pharynx, larynx and bronchi. […] The average is the arithmetic average calculated for each row or column of each table. The SD is the standard deviation, calculated for each row or column of each table.

C[C@@H](OC1OCCN(Cc2nc(=O)[nH][nH]2)C1c1ccc(F)cc1)c1cc(C(F)(F)F)cc(C(F)(F)F)c1 (stereo in doubt) [Aprepitant, 5-([(2R,3S)-2-((R)-1-[3,5-bis(trifluoromethyl)phenyl]ethoxy)-3-(4-fluorophenyl)morpholino]methyl)-1H-1,2,4-triazol-3(2H)-one]
concentration at 7 days (New Zealand White (albino), lung, right inferior lobe, po, 100 mg/kg/day, Lung concentration of aprepitant LIPD, Average ± SD of cases, Group 4, oral 100 mg/kg per day, seven days): 5600 ng/g | concentration at 7 days (New Zealand White (albino), lung, right middle lobe, inhaled, 0.05 mg/kg/day, Lung concentration of aprepitant LMPD (right middle lobe), Group 5, inhalation (aerosol, olive oil) 0.05 mg/kg per day, seven days, individual cases): 1500 ng/g | concentration at 7 days (New Zealand White (albino), lung, right middle lobe, inhaled, 0.05 mg/kg/day, Lung concentration of aprepitant LMPD, Average ± SD of cases, Group 5, inhalation (aerosol, olive oil) 0.05 mg/kg per day, seven days): 1500 ng/g | concentration at 7 days (New Zealand White (albino), lung, right middle lobe, inhaled, 0.1 mg/kg/day, Lung concentration of aprepitant LMPD (right middle lobe), Group 6, inhalation (aerosol, olive oil) 0.1 mg/kg per day, seven days, individual cases): 2900 ng/g | concentration at 7 days (New Zealand White (albino), lung, right middle lobe, inhaled, 0.1 mg/kg/day, Lung concentration of aprepitant LMPD, Average ± SD of cases, Group 6, inhalation (aerosol, olive oil) 0.1 mg/kg per day, seven days): 2900 ng/g | concentration at 7 days (New Zealand White (albino), lung, right middle lobe, inhaled, 0.2 mg/kg/day, Lung concentration of aprepitant LMPD (right middle lobe), Group 7, inhalation (aerosol, olive oil) 0.2 mg/kg per day, seven days, individual cases): 6000 ng/g | concentration at 7 days (New Zealand White (albino), lung, right middle lobe, inhaled, 0.2 mg/kg/day, Lung concentration of aprepitant LMPD, Average ± SD of cases, Group 7, inhalation (aerosol, olive oil) 0.2 mg/kg per day, seven days): 6030 ng/g | concentration at 7 days (New Zealand White (albino), lung, right middle lobe, po, 100 mg/kg/day, Lung concentration of aprepitant LMPD, Average ± SD of cases, Group 4, oral 100 mg/kg per day, seven days): 5400 ng/g | concentration at 7 days (New Zealand White (albino), lung, right superior lobe, inhaled, 0.05 mg/kg/day, Lung concentration of aprepitant LSPD (right superior lobe), Group 5, inhalation (aerosol, olive oil) 0.05 mg/kg per day, seven days, individual cases): 1400 ng/g | concentration at 7 days (New Zealand White (albino), lung, right superior lobe, inhaled, 0.05 mg/kg/day, Lung concentration of aprepitant LSPD, Average ± SD of cases, Group 5, inhalation (aerosol, olive oil) 0.05 mg/kg per day, seven days): 1400 ng/g | concentration at 7 days (New Zealand White (albino), lung, right superior lobe, inhaled, 0.1 mg/kg/day, Lung concentration of aprepitant LSPD (right superior lobe), Group 6, inhalation (aerosol, olive oil) 0.1 mg/kg per day, seven days, individual cases): 2900 ng/g | concentration at 7 days (New Zealand White (albino), lung, right superior lobe, inhaled, 0.1 mg/kg/day, Lung concentration of aprepitant LSPD, Average ± SD of cases, Group 6, inhalation (aerosol, olive oil) 0.1 mg/kg per day, seven days): 2800 ng/g | concentration at 7 days (New Zealand White (albino), lung, right superior lobe, inhaled, 0.2 mg/kg/day, Lung concentration of aprepitant LSPD (right superior lobe), Group 7, inhalation (aerosol, olive oil) 0.2 mg/kg per day, seven days, individual cases): 6100 ng/g | concentration at 7 days (New Zealand White (albino), lung, right superior lobe, inhaled, 0.2 mg/kg/day, Lung concentration of aprepitant LSPD, Average ± SD of cases, Group 7, inhalation (aerosol, olive oil) 0.2 mg/kg per day, seven days): 6000 ng/g | concentration at 7 days (New Zealand White (albino), lung, right superior lobe, po, 100 mg/kg/day, Lung concentration of aprepitant LSPD, Average ± SD of cases, Group 4, oral 100 mg/kg per day, seven days): 4700 ng/g | concentration at 7 days (New Zealand White, in vivo, 0.4 mg/kg/day, Lung concentration of aprepitant, Average ± SD of the five lobes per case): 9900 ng/g | concentration at 7 days (New Zealand White, in vivo, po, 10 mg/kg/day, Lung concentration of aprepitant, Average ± SD of the five lobes per case): 960 ng/g | concentration at 7 days (New Zealand White, in vivo, po, 40 mg/kg/day, Lung concentration of aprepitant, Average ± SD of the five lobes per case): 4200 ng/g | concentration at 7 days (New Zealand White, in vivo, po, 80 mg/kg/day, Lung concentration of aprepitant, Average ± SD of the five lobes per case): 4400 ng/g | concentration at 7 days (New Zealand White, lung, left inferior lobe, inhaled, 0.2 mg/kg/day, Lung concentration of aprepitant LIPI, Average ± SD of cases, Group 7, inhalation (aerosol, olive oil) 0.2 mg/kg per day, seven days): 5900 ng/g | concentration at 7 days (New Zealand White, lung, left inferior lobe, inhaled, 0.4 mg/kg/day, Lung concentration of aprepitant LIPI (left inferior lobe), Group 8, inhalation (aerosol, olive oil) 0.4 mg/kg per day, seven days, individual cases): 10000 ng/g | concentration at 7 days (New Zealand White, lung, left inferior lobe, inhaled, 0.4 mg/kg/day, Lung concentration of aprepitant LIPI, Average ± SD of cases, Group 8, inhalation (aerosol, olive oil) 0.4 mg/kg per day, seven days): 10000 ng/g | concentration at 7 days (New Zealand White, lung, left inferior lobe, po, 10 mg/kg/day, Lung concentration of aprepitant LIPI (left inferior lobe), Group 1, oral 10 mg/kg per day, seven days, individual cases): 1500 ng/g | concentration at 7 days (New Zealand White, lung, left inferior lobe, po, 10 mg/kg/day, Lung concentration of aprepitant LIPI, Average ± SD of cases, Group 1, oral 10 mg/kg per day, seven days): 1300 ng/g | concentration at 7 days (New Zealand White, lung, left inferior lobe, po, 40 mg/kg/day, Lung concentration of aprepitant LIPI (left inferior lobe), Group 2, oral 40 mg/kg per day, seven days, individual cases): 5400 ng/g | concentration at 7 days (New Zealand White, lung, left inferior lobe, po, 40 mg/kg/day, Lung concentration of aprepitant LIPI, Average ± SD of cases, Group 2, oral 40 mg/kg per day, seven days): 4000 ng/g | concentration at 7 days (New Zealand White, lung, left inferior lobe, po, 80 mg/kg/day, Lung concentration of aprepitant LIPI (left inferior lobe), Group 3, oral 80 mg/kg per day, seven days, individual cases): 3600 ng/g | concentration at 7 days (New Zealand White, lung, left inferior lobe, po, 80 mg/kg/day, Lung concentration of aprepitant LIPI, Average ± SD of cases, Group 3, oral 80 mg/kg per day, seven days): 3700 ng/g | concentration at 7 days (New Zealand White, lung, left superior lobe, inhaled, 0.2 mg/kg/day, Lung concentration of aprepitant LSPI, Average ± SD of cases, Group 7, inhalation (aerosol, olive oil) 0.2 mg/kg per day, seven days): 6030 ng/g | concentration at 7 days (New Zealand White, lung, left superior lobe, inhaled, 0.4 mg/kg/day, Lung concentration of aprepitant LSPI (left superior lobe), Group 8, inhalation (aerosol, olive oil) 0.4 mg/kg per day, seven days, individual cases): 9900 ng/g | concentration at 7 days (New Zealand White, lung, left superior lobe, inhaled, 0.4 mg/kg/day, Lung concentration of aprepitant LSPI, Average ± SD of cases, Group 8, inhalation (aerosol, olive oil) 0.4 mg/kg per day, seven days): 10000 ng/g | concentration at 7 days (New Zealand White, lung, left superior lobe, po, 10 mg/kg/day, Lung concentration of aprepitant LSPI (left superior lobe), Group 1, oral 10 mg/kg per day, seven days, individual cases): 500 ng/g
